We go through 9 compounds from ChEMBL document CHEMBL1152527, “Tessaric acid derivatives induce G2/M cell cycle arrest in human solid tumor cell lines” (2009).

Common to all, as to format: functional
The test system of assay [1] is HBL-100. The assay is described as follows: Growth inhibition of human HBL100 cells after 48 hrs by sulforhodamine B assay. The conditions noted are these: HBL-100, 48 h. A general note: In SRB staining, fixed cells bind dye roughly in proportion to their protein.
Assay [2] relates to T47D. The assay is described as follows: Growth inhibition of human T47D cells after 48 hrs by sulforhodamine B assay.
The test system of assay [3] is A2780. The experiment in a line: Growth inhibition of human A2780 cells after 48 hrs by sulforhodamine B assay. The settings on record: A2780, 48 h.
Assay [4] has as its system WiDr. The assay is described as follows: Growth inhibition of human WiDr cells after 48 hrs by sulforhodamine B assay.
The test system of assay [5] is HeLa. The experiment in a line: Growth inhibition of human HeLa cells after 48 hrs by sulforhodamine B assay.
The subject of assay [6] is SW1573. The experiment in a line: Growth inhibition of human SW1573 cells after 48 hrs by sulforhodamine B assay. The conditions noted are these: SW1573, 48 h.
In assay [7] the test system is SW1573. The experiment in a line: Cell cycle arrest in human SW1573 cells assessed as accumulation at G2/M phase at 15 uM after 24 hrs by propidium iodide staining-based FACS analysis.
Assay [8] concerns HeLa. The experiment in a line: Cell cycle arrest in human HeLa cells assessed as decrease in accumulation at G0/G1 phase at 35 uM after 24 hrs by propidium iodide staining-based FACS analysis. In general terms: In flow cytometry, cells or beads pass a laser one at a time.
The test system of assay [9] is T47D. The assay is described as follows: Cell cycle arrest in human T47D cells assessed as accumulation at G2/M phase at 35 uM after 24 hrs by propidium iodide staining-based FACS analysis.
Assay [10] concerns SW1573. The experiment in a line: Cell cycle arrest in human SW1573 cells assessed as accumulation at S phase at 35 uM after 24 hrs by propidium iodide staining-based FACS analysis.
The subject of assay [11] is SW1573. The experiment in a line: Cell cycle arrest in human SW1573 cells assessed as decrease in accumulation at S phase at 15 uM after 24 hrs by propidium iodide staining-based FACS analysis.
Assay [12] deals with WiDr. The experiment in a line: Cell cycle arrest in human WiDr cells assessed as decrease in accumulation at S phase at 35 uM after 24 hrs by propidium iodide staining-based FACS analysis.
For assay [13], the system named is HeLa. The experiment in a line: Cell cycle arrest in human HeLa cells assessed as accumulation at S phase at 35 uM after 24 hrs by propidium iodide staining-based FACS analysis.
Assay [14] concerns SW1573. The experiment in a line: Cell cycle arrest in human SW1573 cells assessed as decrease in accumulation at G0/G1 phase at 35 uM after 24 hrs by propidium iodide staining-based FACS analysis.
Assay [15] relates to T47D. The assay is described as follows: Cell cycle arrest in human T47D cells assessed as decrease in accumulation at S phase at 35 uM after 24 hrs by propidium iodide staining-based FACS analysis.
The subject of assay [16] is T47D. The assay is described as follows: Cell cycle arrest in human T47D cells assessed as increase in accumulation at sub G0 phase at 15 to 35 uM treated for 24 hrs measured after 24 hrs of drug washout by propidium iodide staining-based FACS analysis.
In assay [17] the test system is WiDr. The assay is described as follows: Cell cycle arrest in human WiDr cells assessed as increase in accumulation at sub G0 phase at 15 to 35 uM treated for 24 hrs measured after 24 hrs of drug washout by propidium iodide staining-based FACS analysis.
Assay [18] has as its system WiDr. The assay is described as follows: Cell cycle arrest in human WiDr cells assessed as accumulation at G2/M phase at 35 uM after 24 hrs by propidium iodide staining-based FACS analysis.
Assay [19] concerns HeLa. The experiment in a line: Cell cycle arrest in human HeLa cells assessed as decrease in accumulation at S phase at 15 uM after 24 hrs by propidium iodide staining-based FACS analysis.
The subject of assay [20] is HeLa. The assay is described as follows: Cell cycle arrest in human HeLa cells assessed as accumulation at G2/M phase at 15 uM after 24 hrs by propidium iodide staining-based FACS analysis.
In assay [21] the test system is HeLa. The assay is described as follows: Cell cycle arrest in human HeLa cells assessed as accumulation at G2/M phase at 35 uM after 24 hrs by propidium iodide staining-based FACS analysis.
The subject of assay [22] is SW1573. The experiment in a line: Cell cycle arrest in human SW1573 cells assessed as accumulation at G2/M phase at 35 uM after 24 hrs by propidium iodide staining-based FACS analysis.

The structures appear in SMILES notation. Calls of active or inactive are those of the source. The rule behind the calls is not given here.

By pGI50 is commonly meant the GI50 on a negative log10 scale, so that one unit is a factor of ten. Read a high pGI50 as a small GI50. `C=C(C(=O)OC)[C@@H]1CC[C@@]2(C)CCCC(C)=C2C1`: the GI50 in [1] (read-out: GI50) was 14 µM; in assay [1] (read-out: pGI50 (converted)), 4.86 µM; in assay [2] (read-out: GI50), 35 µM; in assay [3] (read-out: GI50), 18 µM; in assay [3] (read-out: pGI50 (converted)) it was 4.74 µM; in assay [4] (read-out: GI50), 38 µM. Further, the GI50 in assay [4] (read-out: pGI50 (converted)) is 4.45 µM; in assay [5] (read-out: GI50), 13 µM; in assay [5] (read-out: pGI50 (converted)), 4.88 µM; in assay [6] (read-out: GI50), 18 µM; in assay [6] (read-out: pGI50 (converted)), 4.74 µM. For the same compound, in [2], the pGI50 worked out at 4.48.
For `C=C(C(=O)OC)[C@@H]1CC[C@@]2(C)CCC[C@@](C)(O)[C@@H]2C1` [VACHANIC ACID METHYLESTER], the pGI50 in assay [1] came to 4.13; in [2] it was 4; in assay [3], 4; in assay [4], 4; in assay [5] it was 4; in assay [6], 4. For the same compound, the GI50 was 74 µM in [1] (read-out: GI50); above 100 µM in [2] (read-out: GI50); above 100 µM in assay [3] (read-out: GI50); above 100 µM in assay [4] (read-out: GI50); above 100 µM in assay [5] (read-out: GI50); above 100 µM in assay [6] (read-out: GI50).
With `C=C(C(=O)O)[C@@H]1CCC2=CC(=O)C[C@H](C)[C@@]2(C)C1` [TESSARIC ACID], the pGI50 in [1], in assay [2], in [3], in assay [4], in assay [5] and in assay [6] was 4 throughout. Besides, the GI50 in [1] (read-out: GI50), in [2] (read-out: GI50), in assay [3] (read-out: GI50), in assay [4] (read-out: GI50), in [5] (read-out: GI50) and in assay [6] (read-out: GI50) was above 100 µM each time.
For the compound `C=C(C(=O)O)[C@@H]1CC[C@@]2(C)CCCC(C)=C2C1`, the pGI50 in [1], in assay [2], in [3], in assay [4], in assay [5] and in assay [6] was 4 each time. For the same compound, the GI50 in assay [1] (read-out: GI50), in assay [2] (read-out: GI50), in [3] (read-out: GI50), in assay [4] (read-out: GI50), in assay [5] (read-out: GI50) and in [6] (read-out: GI50) was above 100 µM throughout.
In the case of `O=c1[nH]cc(F)c(=O)[nH]1` [FLUOROURACIL], the GI50 amounted to 5.5 µM in [1] (read-out: GI50); 29 µM in assay [2] (read-out: GI50); 4.4 µM in assay [3] (read-out: GI50); 50 µM in [4] (read-out: GI50); 19 µM in assay [5] (read-out: GI50); 4.1 µM in assay [6] (read-out: GI50).
Take `C=C(C(=O)OC)[C@@H]1CCC2=C[C@H](O)C[C@H](C)[C@@]2(C)C1`: the outcome in [7], in [8], in [9], in [10], in [11] and in assay [12] was Active. Besides, the result in [13], in assay [14], in assay [15], in assay [16], in [17] and in [18] was Active. Also, the outcome in [19], in [20], in assay [21] and in assay [22] was Active. Also, the GI50 was 12 µM in [1] (read-out: GI50); 4.91 µM in assay [1] (read-out: pGI50 (converted)); 11 µM in [2] (read-out: GI50); 4.97 µM in assay [2] (read-out: pGI50 (converted)); 11 µM in assay [3] (read-out: GI50); 4.95 µM in [3] (read-out: pGI50 (converted)). For the same compound, the GI50 in [4] (read-out: GI50) is 17 µM; in assay [4] (read-out: pGI50 (converted)), 4.77 µM; in assay [5] (read-out: GI50), 29 µM; in assay [5] (read-out: pGI50 (converted)), 4.54 µM; in [6] (read-out: GI50), 5 µM; in assay [6] (read-out: pGI50 (converted)) it was 5.3 µM.
For `C=C(CO)[C@@H]1CC[C@@]2(C)CCC[C@@](C)(O)[C@@H]2C1` [ILICIC ALCOHOL], the pGI50 in [1], in assay [2], in [3], in [4], in assay [5] and in assay [6] was 4 in each case. Further, the GI50 in assay [1] (read-out: GI50), in assay [2] (read-out: GI50), in assay [3] (read-out: GI50), in assay [4] (read-out: GI50), in [5] (read-out: GI50) and in assay [6] (read-out: GI50) was above 100 µM in each case.
As for `CC[C@@]1(O)C(=O)OCc2c1cc1n(c2=O)Cc2cc3ccccc3nc2-1` [CAMPTOTHECIN], the GI50 in [1] (read-out: GI50) is 0.23 µM; in assay [2] (read-out: GI50) it was 1.9 µM; in assay [3] (read-out: GI50) it was 0.46 µM; in assay [4] (read-out: GI50), 1.7 µM; in assay [5] (read-out: GI50), 1.3 µM; in [6] (read-out: GI50), 0.21 µM.
For `C=C(C(=O)O)[C@@H]1CC[C@@]2(C)CCC[C@@](C)(O)[C@@H]2C1` [ILICIC ACID], the pGI50 in assay [1], in [2], in [3], in assay [4], in assay [5] and in assay [6] was 4 each time. The GI50 in assay [1] (read-out: GI50), in assay [2] (read-out: GI50), in [3] (read-out: GI50), in [4] (read-out: GI50), in assay [5] (read-out: GI50) and in assay [6] (read-out: GI50) was above 100 µM throughout.
